Experimental data from patent US8029553B2, “Portable laser and process for pain research” (priority 2004, dated 2011).
Entries after “also recorded” stand apart in the source; their conditions may differ.

What was measured:
C fibers = assay: Threshold pulse duration for hot pain by 980 nm diode laser, stimulation of C fibers; assay type: in vivo, human; details: healthy volunteer affected by topical capsaicin
Experimental: Subjects: A chronic pain patient with hypersensitivity and a healthy volunteer were tested. Both subjects gave informed consent and the experiments were approved by the local institutional review board. The hairy skin of left hand was used for both volunteers. In preparing the subjects testing, they were asked to respond orally immediately after they perceived any threshold sensation and/or to interrupt lasing pulse by pressing STOP button. They then described the level and type of evoked sensation, location of sensation, how long the sensation lasted, whether the sensation was single (monomodal) sensation or if there were more than one evoked sensations by a single stimulation. Afterwards, the threshold pulse was applied 3 times to different areas with interval of ˜3 min or after the previous sensation (pain) had disappeared. The appearance redness was an indication of skin irritation. Step 1: To test duration of pulse that evoked threshold warmth sensation only, the output power was set to 1.5 W, beam size adjusted to 5 mm. The pulse was applied to the skin. When the volunteer reported warmth (pain) sensation the lasing was stopped. […] The pulse duration for tolerance for hot pain was 2000 ms. […] When this button was pushed the command “stop lasing” was activated, duration of applied pulse was measured and it was indicated on the screen of PC connected to the device by RS232 interface. […]

TRPV1 = target: T1, TRPV1 (Rattus norvegicus, UniProt O35433); assay: Whole cell patch recording of diode laser evoked inward currents in TRPV1 positive (type 2) DRG cells; assay type: cell-based; details: capsazepine 10 uM, close superfusion, two minute application; laser pulses 20 ms and 2.41 W (1200 mA)
T1 construct: DRG cells TRPV1 positive cells (Type 2) and TRPV2 positive cells (Type 4) were irradiated; from tissue; host or cells: primary neurons dissociated from rat dorsal root ganglia (type 2 cells)
T1 sequence (O35433 whole entry, the tested form may be a part): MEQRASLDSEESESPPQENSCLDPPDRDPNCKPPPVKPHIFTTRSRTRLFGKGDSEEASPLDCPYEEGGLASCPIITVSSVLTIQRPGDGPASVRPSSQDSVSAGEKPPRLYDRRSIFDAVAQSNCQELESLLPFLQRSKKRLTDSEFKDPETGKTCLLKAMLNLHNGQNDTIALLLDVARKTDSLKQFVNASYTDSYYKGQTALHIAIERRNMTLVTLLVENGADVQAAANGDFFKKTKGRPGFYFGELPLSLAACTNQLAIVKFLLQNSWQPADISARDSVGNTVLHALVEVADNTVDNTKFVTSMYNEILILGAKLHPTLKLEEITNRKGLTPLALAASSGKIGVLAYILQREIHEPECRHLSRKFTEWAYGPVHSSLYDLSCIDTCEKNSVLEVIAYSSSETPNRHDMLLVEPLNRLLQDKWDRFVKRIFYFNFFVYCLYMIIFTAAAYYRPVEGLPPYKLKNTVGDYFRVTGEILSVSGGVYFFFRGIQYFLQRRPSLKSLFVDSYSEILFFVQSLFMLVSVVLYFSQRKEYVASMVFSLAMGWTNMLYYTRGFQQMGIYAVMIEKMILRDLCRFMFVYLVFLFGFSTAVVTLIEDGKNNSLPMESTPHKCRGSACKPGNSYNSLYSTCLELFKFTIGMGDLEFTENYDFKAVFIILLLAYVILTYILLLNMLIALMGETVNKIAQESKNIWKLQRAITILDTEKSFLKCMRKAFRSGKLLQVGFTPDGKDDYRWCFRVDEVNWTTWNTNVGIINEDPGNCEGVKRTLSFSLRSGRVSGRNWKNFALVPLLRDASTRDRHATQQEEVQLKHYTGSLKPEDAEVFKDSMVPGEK
Experimental: Rats were anesthetized with halothane. Following decapitation, the spinal cord was rapidly removed, and the dorsal root ganglia were dissected free. Dissected ganglia were placed in a heated bath (35° C. for 70 min) containing dispase II and collagenase (2 mg/ml; Sigma type 1). Following wash and trituration, recovered cells were plated on 10 polylysine coated, 35 mm Petri dishes. Cells were bathed continuously in a rat Tyrode's solution containing (mM): 140 NaCl, 4 KCl, 2 MgCl2, 2 CaCl2, 10 glucose, and 10 HEPES, pH adjusted to 7.4 with NaOH. Only one cell was used from each dish. Bath temperature was maintained at 32° C. by a feedback-controlled bath heater (TCbip; Cell Microsystems).
Electrodes were prepared (2-4 MΩ) from glass pipettes using a Brown and Flaming type horizontal puller (Sutter model P87). Whole cell recordings were made with an Axopatch 200B (Axon Instruments). Stimuli were controlled and digital records captured with pClamp 8.2 software and Digidata 1322A A/D converter (Axon Instruments). Series resistance (Rs) was compensated 40-60% with Axopatch 200B compensation circuitry. Whole cell resistance and capacitance was determined by Clampex 8.2 software utility. A liquid junction potential of approximately 4 mV was not corrected.
Recordings were made from cells with diameters between 25 and 45 μm.
Lass 10 M investigational diode laser (Lasmed LLC) was used in all studies. […]

C fiber mediated pain = details: background statement; cited from earlier work

COc1cc(CNC(=O)CCCC/C=C/C(C)C)ccc1O [Capsaicin]
threshold pulse duration by reflex time monitored with infrared CCD camera (C fibers; 1.5 W, 5 mm, without delay of individual reaction (1270 ms without capsaicin)): 650 ms | threshold pulse duration for hot pain (C fibers; output power 1.5 W, beam size 5 mm, hairy skin of left hand, lasing stopped by volunteer (1300 ms without capsaicin)): 800 ms

Oc1cc2c(cc1O)CN(C(=S)NCCc1ccc(Cl)cc1)CCC2 [capsazepine]
currents evoked by 980 nm stimuli (TRPV1): dramatically reduced; also recorded: reduced currents

CN1CC[C@]23c4c5ccc(O)c4O[C@H]2[C@@H](O)C=C[C@H]3[C@H]1C5 [morphine]
effectiveness in inhibiting C fiber mediated pain compared with A delta fiber mediated pain (C fiber mediated pain): much more effective
